These results are taken from patent US12503455B2, “Nucleic acid-binding photoprobes and uses thereof” (Arrakis Therapeutics, Inc., priority 2017, dated 2025).

A word on the Kd: it is a measure of binding affinity in units of concentration.

The structures appear in SMILES notation. Values joined by “and” are separate entries in the source; they are usually repeats but may differ in a detail not shown here. Equal values may be shown once. “Also recorded” adds a separate entry of the source.

The subject of one series is Aptamer 21-E. The series is described as follows: SPR binding to mutant Aptamer 21-E. As to conditions: data not shown; listed as ARK-139. From the text:
(§1) Surface plasmon resonance (SPR) may be used to screen ligands and hook and click constructs for binding to a target RNA of interest. SPR is especially useful for monitoring biomolecular interactions in real time. Typically, target species and unrelated control are immobilized to a sensor chip, then analytes (compounds/fragments) are flowed over the surface. Binding of the compound to target species results in increase of SPR signal (association phase). Washing away bound compound with buffer results in a decrease of SPR signal (dissociation phase). Fitting of sensorgrams recorded at different compound concentrations is performed to an appropriate interaction model. The method allows extraction of kinetic parameters (ka, kd→KD). Requirements/limitations include that the ka/kd values be in reasonable ranges; and the target size must not be too large (<100 kDa). It is an excellent method to screen fragments and profile or validate hits. BC4000 may be used for primary screening (up to 4,000 data pts/week). Biacore T200 is suitable for hit profiling and validation.
Experiments were performed on a MASS-2 (Sierra Sensors) at 25° C. A high capacity amine chip was equilibrated with PBS. The chip was conditioned with alternating injections of 10 mM HCl and 10 mM NaOH in 1 M NaCl. […]
Background: Surface plasmon resonance follows binding to a sensor surface in real time, without labels.

For series [1] the following is noted: cited from earlier work.
Another series deals with Aptamer 21 RNA. The series is described as follows: Online SEC-LCMS binding to Aptamer 21 RNA. As to conditions: for % of binding: RNA 1 uM. On the procedure: Online SEC-LCMS has been used to study the binding to Aptamer 21 RNA against I-1 (ARK-139).
The RNA concentration was 1 μM and the ligand concentration ranged from 0.1 to 10 μM in an appropriate buffer (TRIS-HCl 20 mM pH 8.0, MgCl2 3 mM, KCl 100 mM).
The RNA/ligand mixtures were incubated at room temperature for 20 minutes in a 96-well plate format, then this plate was loaded into an autosampler linked to the chromatography system fitted with a reusable SEC column for rapid separation of target/ligand complexes from unbound components. RNA/ligand complexes in SEC eluent were monitored by UV detection, and an automated valving system directed the RNA peak to a reverse phase chromatography column for dissociation, desalting, and elution of any ligands into an ESI-MS system for identification.
All liquid chromatographic components were HP1200 modules. The mass spectrometer was the Waters LCT premier instrument operated in positive electrospray (ES+) TOF-MS mode. The mass range acquired was 80-1000 m/z in 0.25 s. The SEC column was 50×4.6 mm polyhydroxyethyl column. The SEC mobile phase was 50 mM phosphate buffer with 200 mM NaCl, pH=7.0. The LC column was a 2.1×50 mm C18 Phenomenex column. The gradient LC mobile phase A was 0.1% formic acid in water and B was acetonitrile/water with 0.1% formic acid. The run time was 7.9 min.
Binding of I-1 to Aptamer 21 was measured. SEC/LCMS conditions for this experiment were: [I-1]=5 uM, [RNA]=1 uM, Buffer=Tris-HCl 20 mM, KCl 100 mM, 3 mM MgCl2.

In another series the target is Aptamer 21. Nature of the series: Surface plasmon resonance (SPR) binding to Aptamer 21. The note with it: listed as ARK-139.
Text: as §1
In the PEARL-seq context, SPR allows monitoring binding of “hooks” to DNA/RNA aptamers. The target species is immobilized to sensor chip, analytes (i.e. hooks) are flowed over surface (association phase), DNA/RNA aptamer is flowed over surface (plateau phase), competitor compound is washed over surface (dissociation phase), thus yielding binding data.
Experiments were performed on a MASS-2 (Sierra Sensors) at 25° C. A high capacity amine chip was equilibrated with PBS. The chip was conditioned with alternating injections of 10 mM HCl and 10 mM NaOH in 1 M NaCl. The carboxymethylated dextran of the surface of the amine chip was activated for 7 minutes at a flow rate of 10 μL/min using a 1:1 volume ratio of 0.4 M 1-ethyl-3-(3-dimethylaminopropyl) carbodiimide (Sierra) and 0.1 M N-hydroxysuccinimide (Sierra). Neutravidin (70 μg/mL, Thermofisher) was injected over the activated surface for 10 minutes at a flow rate of 10 μl/min. Excess activated groups were blocked by an injection of 1 M ethanolamine, pH 8.5 (Sierra) for 7 minutes at a flow rate of 10 μl/min. A final injection of 10 mM NaOH in 1 M NaCl for 7 minutes at 10 μl/min was used to remove any unbound material to the chip. The immobilization reaction typically yielded approximately 12,000 resonance units (RU) of neutravidin. At least one spot in a channel was not injected with RNA and was used as a background control. Unrelated RNA was also used as a background control.
A 1 μM sample of biotin-aptamer 21 was prepared in RNAse free water, heated to 95° C. for 3 minutes, cooled on ice for 4 minutes, diluted with an equal volume 2× folding buffer (40 mM Tris-HCl, pH 8.0, 6 mM MgCl2, 200 mM KCl), and incubated at 37° C. for 30 minutes. The final concentration of RNA was 0.5 μM.
The MASS-2 was primed 2 times with 20 mM Tris-HCl, pH 8.0, 3 mM MgCl2, 100 mM KCl (Capture Buffer). RNA was injected over the neutravidin surface for 7 minutes at a flow rate of 10 μl/min. Capture levels typically reached approximately 3500-4500 of resonance units of aptamer 21.
Compounds were diluted 2-fold in 100% DMSO at a starting concentration of 500 μM.
The MASS-2 was primed 2 times with 20 mM Tris-HCl, pH 8.0, 3 mM MgCl2, 100 mM KCl, 1% DMSO (running buffer). Prior to testing compounds 3 injections of running buffer were used to equilibrate the sensor surface. […]

A further series addresses Aptamer-21. The note with it: Lau et al., ACS Nano 2011; read-out: Kd of Aptamer-21 against compound 1b; cited from earlier work.

Regarding `COC(=O)C1=C(COCc2cn(CCOCCOCCO)nn2)NC(c2ccncc2)=NC1c1ccc(F)cc1Cl` (racemic) [I-1], the “binding to Aptamer 21-E by SPR” value in the series on Aptamer 21-E is “not to bind; also recorded: did not bind”. In addition, the water solubility result in series [1] is given as “water-soluble”. Besides, the “% of binding” value in the series on Aptamer 21 RNA (ARK-000139 conc 0.1 μM) came out at 72.5%; in the series with Aptamer 21 RNA (ARK-000139 conc 0.5 μM) it was 36.5%; with Aptamer 21 RNA (ARK-000139 conc 1 μM) it was 33.6%; in the series with Aptamer 21 RNA (ARK-000139 conc 3 μM), 22.4%; in the series with Aptamer 21 RNA (ARK-000139 conc 10 μM), 8.9%. The “binding to Aptamer 21 by SEC-MS” value with Aptamer 21 RNA (data not shown) is on record as “confirmed”. Besides, the Kd at Aptamer 21 (binding to Aptamer 21, read-out: calculated KD by SPR) is 568 nM and 420 nM; on Aptamer-21 it was 50 nM. The “binding to Aptamer 21 by SPR” value in the series with Aptamer 21 is on record as “binds; also recorded: SPR-active”.
